What is called LD50 is the dose at which mortality reaches 50%.

This is an account of results in patent US4058608A, “Method of treating fungus-infected plants with phenylazocyanoacetic ester derivatives” (Chinoin Gyogyszer es Vegyeszeti Termekek Gyara RT, priority 1974, dated 1977).

Molecules are shown by their SMILES.

For data set [1], the system named is mice. Description: toxicity tests on mice. Format: in vivo. The conditions noted are these: single treatment, one week observation. How it is done:
(§1) 5, 10 or 20% of active agent were suspended in 0.1% agar gel, and the obtained homogeneous suspensions were injected intraperitoneally into mice, or were administered into the stomach of the animals via a stomach tube. The animals were kept under observation for one week after a single treatment, and the toxicity data were evaluated on the basis of the percentage deaths observed in this period.

A short description of data set [2]: toxicity tests on mice. The data set is classed as in vivo. The settings on record: mouse, in vivo, ip, intraperitoneal administration, calculated from LD0 and LD100. How it is done:
as §1

Setting [3] is: oral administration (stomach tube).

Regarding `CCOC(=O)C(C#N)N=Nc1ccc(Cl)cc1` (centres unmarked) [C2 H5 -- H H Cl], in data set [1] (intraperitoneal administration), the LD0 worked out at 200 mg/kg and the LD100 stood at 600 mg/kg. In data set [1] (setting [3]), this molecule showed an LD0 of 6000 mg/kg and an LD100 of 6000 mg/kg. Also, the 50% lethal dose (LD50) at 168 h in data set [2] is 400 mg/kg.

As to `CCOC(=O)C(C#N)N=Nc1cccc(Cl)c1` (centres unmarked) [C2 H5 -- H Cl H], the LD0 in data set [1] (intraperitoneal administration) amounted to 200 mg/kg; in data set [1] (setting [3]), 6000 mg/kg. Moreover, the LD100 is 600 mg/kg in data set [1] (intraperitoneal administration) and 6000 mg/kg in data set [1] (setting [3]). In addition, in data set [2], the median lethal dose (LD50) at 168 h is 400 mg/kg.

Regarding `CCCCOC(=O)C(C#N)N=Nc1cccc([N+](=O)[O-])c1` (centres unmarked) [n-C4 H9 -- H NO2 -- H], in data set [1] (intraperitoneal administration), the LD0 amounted to 400 mg/kg and the LD100 worked out at 800 mg/kg. Also, in data set [1] (setting [3]), the LD0 was 6000 mg/kg and the LD100 came out at 6000 mg/kg. Also, the LD50 at 168 h in data set [2] is 600 mg/kg.

With `CCCCOC(=O)C(C#N)N=Nc1ccc([N+](=O)[O-])cc1` (centres unmarked) [n-C4 H9 -- H H NO2 --], the LD0 in data set [1] (intraperitoneal administration) was determined as 400 mg/kg; in data set [1] (setting [3]) it was 6000 mg/kg. Moreover, the LD100 in data set [1] (intraperitoneal administration) turned out to be 800 mg/kg; in data set [1] (setting [3]) it was 6000 mg/kg. The LD50 at 168 h in data set [2] was 600 mg/kg.

In data set [1] (intraperitoneal administration), `CCCOC(=O)C(C#N)N=Nc1ccc(Cl)cc1` (centres unmarked) [n-C3 H7 -- H H Cl] displayed an LD0 of 400 mg/kg and an LD100 of 1000 mg/kg. Further, in data set [1] (setting [3]), the LD0 turned out to be 6000 mg/kg and the LD100 worked out at 6000 mg/kg. In data set [2], the LD50 at 168 h was 600 mg/kg.

On to `CCCOC(=O)C(C#N)N=Nc1cccc(Cl)c1` (centres unmarked) [n-C3 H7 -- H Cl H], for which, in data set [1] (intraperitoneal administration), the LD0 turned out to be 300 mg/kg and the LD100 was 800 mg/kg. Further, in data set [1] (setting [3]), the LD0 came out at 6000 mg/kg and the LD100 is 6000 mg/kg. Besides, the LD50 at 168 h in data set [2] is 500 mg/kg.

With `CCCCOC(=O)C(C#N)N=Nc1ccc(Cl)cc1` (centres unmarked) [n-C4 H9 -- H H Cl], the results for the LD0 in data set [1] (intraperitoneal administration) and in data set [1] (setting [3]) were 500 mg/kg and 6000 mg/kg, respectively. The LD100 worked out at 1000 mg/kg in data set [1] (intraperitoneal administration) and 6000 mg/kg in data set [1] (setting [3]). In data set [2], the LD50 at 168 h is 800 mg/kg.

As to `CC(C)OC(=O)C(C#N)N=Nc1ccc(Cl)cc1` (centres unmarked) [i-C3 H7 -- H H Cl], in data set [1] (intraperitoneal administration), the LD0 came to 400 mg/kg and the LD100 was 1000 mg/kg. Also, in data set [1] (setting [3]), the LD0 was 6000 mg/kg and the LD100 was 6000 mg/kg. For the same molecule, the LD50 at 168 h in data set [2] was 600 mg/kg.

As for `CCCCOC(=O)C(C#N)N=Nc1cccc(Cl)c1` (centres unmarked) [n-C4 H9 -- H Cl H], in data set [1] (intraperitoneal administration), the LD0 stood at 500 mg/kg and the LD100 is 1000 mg/kg. Further, in data set [1] (setting [3]), the LD0 is 6000 mg/kg and the LD100 stood at 6000 mg/kg. In data set [2], the LD50 at 168 h is 800 mg/kg.

In data set [1] (intraperitoneal administration), `CC(C)OC(=O)C(C#N)N=Nc1cccc(Cl)c1` (centres unmarked) [i-C3 H7 -- H Cl H] gave an LD0 of 300 mg/kg and an LD100 of 800 mg/kg. In addition, in data set [1] (setting [3]), the LD0 is 6000 mg/kg and the LD100 came to 6000 mg/kg. Further, in data set [2], the median lethal dose (LD50) at 168 h is 500 mg/kg.
